Test results reported in patent publication US20220177508A1, “C10-Cyclic Substituted 13-Membered Macrolides and Uses Thereof” (Zikani Therapeutics, Inc., priority 2018, published 2022).
In brackets after ≈: the same amount, converted by molar mass.

Assays:
Format in all cases: cell-based
K. pneumoniae MP-546 = experiment: Broth dilution MIC determination (CLSI), K. pneumoniae MP-546; conditions: Klebsiella pneumoniae, MP546; strain MP-546, broth dilution
E. coli MP-4 = experiment: Broth dilution MIC determination (CLSI), E. coli MP-4; conditions: Escherichia coli, MP4; strain MP-4, broth dilution; read-out: MIC E. coli MP-4
S. aureus MP-12 = experiment: Broth dilution MIC determination (CLSI), S. aureus MP-12; conditions: Staphylococcus aureus, MP12; strain MP-12, broth dilution
A. baumannii MP-15 = experiment: Broth dilution MIC determination (CLSI), A. baumannii MP-15; conditions: Acinetobacter baumannii, MP15; strain MP-15, broth dilution; read-out: MIC A. baumanii MP-15
P. aeruginosa MP-3 = experiment: Broth dilution MIC determination (CLSI), P. aeruginosa MP-3; conditions: Pseudomonas aeruginosa, MP3; strain MP-3, broth dilution

Row | MIC (K. pneumoniae MP-546) | MIC (E. coli MP-4) | MIC (S. aureus MP-12) | MIC (A. baumannii MP-15) | MIC (P. aeruginosa MP-3) | Structure (SMILES)
1 | 4 to 32 µg/mL (≈ 5.69 to 45.5 µM) | < 4 µg/mL | 4 to 32 µg/mL (≈ 5.69 to 45.5 µM) | > 32 µg/mL | > 32 µg/mL | CO[C@]1(C)C[C@@H](C)CN(C)[C@H](C2CN(CC(=O)NCc3ccccc3)C2)COC(=O)C(C)(C)C(=O)[C@H](C)[C@H]1O[C@@H]1O[C@H](C)C[C@H](N(C)C)[C@H]1O [Compound 20, N-benzyl-2-(3-((3R,6R,8R,9R,10R)-9-(((2S,3R,4S,6R)-4-(dimethylamino)-3-hydroxy-6-methyltetrahydro-2H-pyran-2-yl)oxy)-8-methoxy-4,6,8,10,12,12-hexamethyl-11,13-dioxo-1-oxa-4-azacyclotridecan-3-yl)azetidin-1-yl)acetamide]
2 | > 32 µg/mL | > 32 µg/mL | > 32 µg/mL | > 32 µg/mL | > 32 µg/mL | CO[C@]1(C)C[C@@H](C)CN(CC(C)C)[C@H](C2CN(CC(C)C)C2)COC(=O)C(C)(C)C(=O)[C@H](C)[C@H]1O[C@@H]1O[C@H](C)C[C@H](N(C)C)[C@H]1O [Compound 21, (3R,6R,8R,9R,10R)-9-(((2S,3R,4S,6R)-4-(dimethylamino)-3-hydroxy-6-methyltetrahydro-2H-pyran-2-yl)oxy)-4-isobutyl-3-(1-isobutylazetidin-3-yl)-8-methoxy-6,8,10,12,12-pentamethyl-1-oxa-4-azacyclotridecane-11,13-dione]
3 | 4 to 32 µg/mL (≈ 6.69 to 53.5 µM) | 4 to 32 µg/mL (≈ 6.69 to 53.5 µM) | > 32 µg/mL | > 32 µg/mL | > 32 µg/mL | CO[C@]1(C)C[C@@H](C)CN(C)[C@@H]([C@@H]2CCCN(C)C2)COC(=O)C(C)(C)C(=O)[C@H](C)[C@H]1O[C@@H]1O[C@H](C)C[C@H](N(C)C)[C@H]1O [Compound 23, (3S,6R,8R,9R,10R)-9-(((2S,3R,4S,6R)-4-(dimethylamino)-3-hydroxy-6-methyltetrahydro-2H-pyran-2-yl)oxy)-8-methoxy-4,6,8,10,12,12-hexamethyl-3-((R)-1-methylpiperidin-3-yl)-1-oxa-4-azacyclotridecane-11,13-dione]
4 | > 32 µg/mL | 4 to 32 µg/mL (≈ 6.54 to 52.3 µM) | > 32 µg/mL | > 32 µg/mL | > 32 µg/mL | CN[C@H]1CC[C@H]([C@H]2COC(=O)C(C)(C)C(=O)[C@H](C)[C@@H](O[C@@H]3O[C@H](C)C[C@H](N(C)C)[C@H]3O)[C@](C)(OC)C[C@@H](C)CN2C)CC1 [Compound 26, (3S,6R,8R,9R,10R)-9-(((2S,3R,4S,6R)-4-(dimethylamino)-3-hydroxy-6-methyltetrahydro-2H-pyran-2-yl)oxy)-8-methoxy-4,6,8,10,12,12-hexamethyl-3-((1r,4S)-4-(methylamino)cyclohexyl)-1-oxa-4-azacyclotridecane-11,13-dione]
5 | > 32 µg/mL | > 32 µg/mL | > 32 µg/mL | > 32 µg/mL | > 32 µg/mL | CO[C@]1(C)C[C@@H](C)CN(CC(C)C)[C@H](C2CN(C(=O)CN(C)C)C2)COC(=O)C(C)(C)C(=O)[C@H](C)[C@H]1O[C@@H]1O[C@H](C)C[C@H](N(C)C)[C@H]1O [Compound 27, (3R,6R,8R,9R,10R)-9-(((2S,3R,4S,6R)-4-(dimethylamino)-3-hydroxy-6-methyltetrahydro-2H-pyran-2-yl)oxy)-3-(1-(dimethylglycyl)azetidin-3-yl)-4-isobutyl-8-methoxy-6,8,10,12,12-pentamethyl-1-oxa-4-azacyclotridecane-11,13-dione]
6 | < 4 µg/mL | < 4 µg/mL | 4 to 32 µg/mL (≈ 6.24 to 49.9 µM) | > 32 µg/mL | > 32 µg/mL | CO[C@]1(C)C[C@@H](C)CN(C)[C@H](C2CN(C(=O)CN(C)C)C2)COC(=O)C(C)(C)C(=O)[C@H](C)[C@H]1O[C@@H]1O[C@H](C)C[C@H](N(C)C)[C@H]1O [Compound 28, (3R,6R,8R,9R,10R)-9-(((2S,3R,4S,6R)-4-(dimethylamino)-3-hydroxy-6-methyltetrahydro-2H-pyran-2-yl)oxy)-3-(1-(dimethylglycyl)azetidin-3-yl)-8-methoxy-4,6,8,10,12,12-hexamethyl-1-oxa-4-azacyclotridecane-11,13-dione]
7 | 4 to 32 µg/mL (≈ 6.69 to 53.5 µM) | < 4 µg/mL | > 32 µg/mL | > 32 µg/mL | > 32 µg/mL | CCCN1CC([C@H]2COC(=O)C(C)(C)C(=O)[C@H](C)[C@@H](O[C@@H]3O[C@H](C)C[C@H](N(C)C)[C@H]3O)[C@](C)(OC)C[C@@H](C)CN2C)C1 [Compound 29, (3S,6R,8R,9R,10R)-9-(((2S,3R,4S,6R)-4-(dimethylamino)-3-hydroxy-6-methyltetrahydro-2H-pyran-2-yl)oxy)-8-methoxy-4,6,8,10,12,12-hexamethyl-3-(1-propylazetidin-3-yl)-1-oxa-4-azacyclotridecane-11,13-dione]

Further lines, the molecule ahead of its results:

Row | Structure (SMILES) | MIC (K. pneumoniae MP-546) | MIC (E. coli MP-4) | MIC (S. aureus MP-12) | MIC (A. baumannii MP-15) | MIC (P. aeruginosa MP-3)
8 | CO[C@]1(C)C[C@@H](C)CN(C)[C@H](C2CN(C(=O)CN3Cc4ccccc4C3)C2)COC(=O)C(C)(C)C(=O)[C@H](C)[C@H]1O[C@@H]1O[C@H](C)C[C@H](N(C)C)[C@H]1O [Compound 10, (3R,6R,8R,9R,10R)-9-(((2S,3R,4S,6R)-4-(dimethylamino)-3-hydroxy-6-methyltetrahydro-2H-pyran-2-yl)oxy)-3-(1-(2-(isoindolin-2-yl)acetyl)azetidin-3-yl)-8-methoxy-4,6,8,10,12,12-hexamethyl-1-oxa-4-azacyclotridecane-11,13-dione] | 4 to 32 µg/mL (≈ 5.59 to 44.8 µM) | < 4 µg/mL | 4 to 32 µg/mL (≈ 5.59 to 44.8 µM) | 4 to 32 µg/mL (≈ 5.59 to 44.8 µM) | > 32 µg/mL
9 | CO[C@]1(C)C[C@@H](C)CN(C)[C@H]([C@H]2CCN(C(C)C)C2)COC(=O)C(C)(C)C(=O)[C@H](C)[C@H]1O[C@@H]1O[C@H](C)C[C@H](N(C)C)[C@H]1O [Compound 11, (3R,6R,8R,9R,10R)-9-(((2S,3R,4S,6R)-4-(Dimethylamino)-3-hydroxy-6-methyltetrahydro-2H-pyran-2-yl)oxy)-3-((S)-1-isopropylpyrrolidin-3-yl)-8-methoxy-4,6,8,10,12,12-hexamethyl-1-oxa-4-azacyclotridecane-11,13-dione] | < 4 µg/mL | < 4 µg/mL | 4 to 32 µg/mL (≈ 6.54 to 52.3 µM) | > 32 µg/mL | > 32 µg/mL
10 | CO[C@]1(C)C[C@@H](C)CN(C)[C@@H](C2CCN(CC(C)C)CC2)COC(=O)C(C)(C)C(=O)[C@H](C)[C@H]1O[C@@H]1O[C@H](C)C[C@H](N(C)C)[C@H]1O [Compound 12, (3S,6R,8R,9R,10R)-9-(((2S,3R,4S,6R)-4-(dimethylamino)-3-hydroxy-6-methyltetrahydro-2H-pyran-2-yl)oxy)-3-(1-isobutylpiperidin-4-yl)-8-methoxy-4,6,8,10,12,12-hexamethyl-1-oxa-4-azacyclotridecane-11,13-dione] | < 4 µg/mL | < 4 µg/mL | 4 to 32 µg/mL (≈ 6.25 to 50 µM) | > 32 µg/mL | > 32 µg/mL
11 | CCC(=O)N1CCC([C@@H]2COC(=O)C(C)(C)C(=O)[C@H](C)[C@@H](O[C@@H]3O[C@H](C)C[C@H](N(C)C)[C@H]3O)[C@](C)(OC)C[C@@H](C)CN2C)CC1 [Compound 13, (3R,6R,8R,9R,10R)-9-(((2S,3R,4S,6R)-4-(dimethylamino)-3-hydroxy-6-methyltetrahydro-2H-pyran-2-yl)oxy)-8-methoxy-4,6,8,10,12,12-hexamethyl-3-(1-propionylpiperidin-4-yl)-1-oxa-4-azacyclotridecane-11,13-dione] | 4 to 32 µg/mL (≈ 6.25 to 50 µM) | 4 to 32 µg/mL (≈ 6.25 to 50 µM) | 4 to 32 µg/mL (≈ 6.25 to 50 µM) | > 32 µg/mL | > 32 µg/mL
12 | CO[C@]1(C)C[C@@H](C)CN(C)[C@H](C2CN(C(=O)CN3CCC3)C2)COC(=O)C(C)(C)C(=O)[C@H](C)[C@H]1O[C@@H]1O[C@H](C)C[C@H](N(C)C)[C@H]1O [Compound 14] | > 32 µg/mL | < 4 µg/mL | > 32 µg/mL | > 32 µg/mL | > 32 µg/mL
13 | CCN1C2CCC1CC([C@@H]1COC(=O)C(C)(C)C(=O)[C@H](C)[C@@H](O[C@@H]3O[C@H](C)C[C@H](N(C)C)[C@H]3O)[C@](C)(OC)C[C@@H](C)CN1C)C2 (stereo partly drawn) [Compound 15, (3R,6R,8R,9R,10R)-9-(((2S,3R,4S,6R)-4-(dimethylamino)-3-hydroxy-6-methyltetrahydro-2H-pyran-2-yl)oxy)-3-(8-ethyl-8-azabicyclo[3.2.1]octan-3-yl)-8-methoxy-4,6,8,10,12,12-hexamethyl-1-oxa-4-azacyclotridecane-11,13-dione] | 4 to 32 µg/mL (≈ 6.27 to 50.2 µM) | < 4 µg/mL | 4 to 32 µg/mL (≈ 6.27 to 50.2 µM) | > 32 µg/mL | > 32 µg/mL
14 | CO[C@]1(C)C[C@@H](C)CN(C)[C@H](C2CN(CC3CCC3)C2)COC(=O)C(C)(C)C(=O)[C@H](C)[C@H]1O[C@@H]1O[C@H](C)C[C@H](N(C)C)[C@H]1O [Compound 17, (3R,6R,8R,9R,10R)-3-(1-(cyclobutylmethyl)azetidin-3-yl)-9-(((2S,3R,4S,6R)-4-(dimethylamino)-3-hydroxy-6-methyltetrahydro-2H-pyran-2-yl)oxy)-8-methoxy-4,6,8,10,12,12-hexamethyl-1-oxa-4-azacyclotridecane-11,13-dione] | < 4 µg/mL | < 4 µg/mL | 4 to 32 µg/mL (≈ 6.41 to 51.3 µM) | 4 to 32 µg/mL (≈ 6.41 to 51.3 µM) | > 32 µg/mL
15 | CO[C@]1(C)C[C@@H](C)CN(C)[C@H](c2ccncc2)COC(=O)C(C)(C)C(=O)[C@H](C)[C@H]1O[C@@H]1O[C@H](C)C[C@H](N(C)C)[C@H]1O [Compound 19, (3R,6R,8R,9R,10R)-9-(((2S,3R,4S,6R)-4-(dimethylamino)-3-hydroxy-6-methyltetrahydro-2H-pyran-2-yl)oxy)-8-methoxy-4,6,8,10,12,12-hexamethyl-3-(pyridin-4-yl)-1-oxa-4-azacyclotridecane-11,13-dione] | > 32 µg/mL | > 32 µg/mL | > 32 µg/mL | > 32 µg/mL | > 32 µg/mL
